Results reported in patent publication US20070105825A1, “Concurrent drugs” (priority 2004, published 2007).

Key:
whole blood = test: Improvement effect on activated state of blood coagulation (activated whole blood clotting time, Hemochron); type: cell-based, rabbit (Japanese White, male); conditions: rabbit whole blood; for significant prolonged effect on the activated whole blood clotting time to the control: independent use, 1 μM; for activated clotting time (mean ± S.E.): single application, antiplatelet drug 1 μM, control 218 ± 5.1
Experimental: Citrate blood collected from a rabbit (Japanese White, male) was used for the test as the whole blood after maintaining room temperature for 30-60 minutes. 376 μL of the whole blood, 4 μL of a dimethylsulfoxide and 20 μL of a 250 mM calcium chloride solution were poured into a test tube for measurement of activated whole blood clotting time (Hemochron test tube P214, International Technidyne Corporation). After slight stirring of the mixture, an activated whole blood clotting time was measured by a blood clotting meter (Hemochron 801, International Technidyne Corporation) as the control.

[1] = test system: thrombus formation in abdominal aorta of rats; test: Inhibitory effect on thrombus formation (FeCl2-induced abdominal aorta thrombus, total protein content); type: in vivo, rat (Sprague-Dawley, male); conditions: rat; for significant inhibitory effects on the thrombus formation compared with group A as control: alone: cilostazol 100 mg/kg oral or compound Id 3 mg/kg subcutaneous; for Total protein amount in thrombus: single application, control 1.52 ± 0.39
Experimental: Rats (Sprague-Dawley rats, male) were divided into four groups of A, B, C and D. 0.5% methylcellulose solution was orally administrated into the rats of groups A and B, and cilostazol (100 mg/kg) was orally administrated into the rats of groups C and D. […] Simultaneously, the all rats of groups A-D were anesthetized by intraperitoneal injection of 5 mL/kg of 20% urethane solution. […] After removing of the filter paper, each rat was left at rest for additional 25 minutes. Then, the abdominal aorta was ligated at both upper and lower ends of the thrombus induction site. All the thrombus adhering to the inside of the excised abdominal aorta were harvested and dissolved in 1 mL of 0.5 N sodium hydroxide solution as the test solution. The total protein content in the test solution was measured using Coomasie Plus Protein Assay Kit (PIERCE Corp.) as the index of the thrombus formation.

Row | SMILES | significant prolonged effect on the activated whole blood clotting time to the control (whole blood) | activated clotting time (mean ± S.E.) (whole blood) [s] | significant inhibitory effects on the thrombus formation compared with group A as control [1] | Total protein amount in thrombus ([1]; cilostazol 100 mg/kg oral, n=3) [mg] | Total protein amount in thrombus ([1]; compound Id 3 mg/kg subcutaneous, n=4) [mg]
1 | CC(=O)Oc1ccccc1C(=O)O [Aspirin, aspirin] | showed a significant prolonged effect | 215 ± 16.3 | – | – | –
2 | O=C1CCc2cc(OCCCCc3nnnn3C3CCCCC3)ccc2N1 [Cilostazol, cilostazol] | showed a significant prolonged effect | 205 ± 5.8 | not observed | 1.39 ± 0.45 | –
3 | CS(=O)(=O)c1ccccc1-c1ccc(CCNS(=O)(=O)c2cc(C(=N)N)ccc2O)c(OCC(=O)O)c1 [Compound Id] | – | – | not observed | – | 0.94 ± 0.30
4 | OCCN(CCO)c1nc(N2CCCCC2)c2nc(N(CCO)CCO)nc(N3CCCCC3)c2n1 [Dipyridamole, dipyridamole] | showed a significant prolonged effect | 210 ± 10.9 | – | – | –
